According to patent US9028845B2, “Chimeric immunomodulatory compounds and methods of using the same-IV” (Dynavax Technologies Corporation, priority 2001, dated 2015):

System: human PBMCs
Experiment: Human PBMC cytokine response assay (IFN-γ and IFN-α in cell-free medium by ELISA), with or without cPLGA;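 for IFN-α (pg/ml) mean: 20 µg/mL compound for 24 hours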;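 for IFN-γ (pg/ml) mean: 20 µg/mL compound for 24 hours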
Format: cell-based
[1] = Table 24, mean of donors 28234-28237
[2] = Table 25, mean of donors 28250-28253
[3] = donor 28066, 20 ug/ml, 24 h, + PLGA = premixed with 100 μg/ml cPLGA
[4] = donor 28067, 20 ug/ml, 24 h, + PLGA = premixed with 100 μg/ml cPLGA
[5] = donor 28068, 20 ug/ml, 24 h, + PLGA = premixed with 100 μg/ml cPLGA
[6] = mean of Donors 1-2, 20 μg/ml, 24 h
[7] = mean of Donors 3-4, 20 μg/ml, 24 h
[8] = mean of Donors 5-6, 20 μg/ml (mixtures: 20 μg/ml total), 24 h
[9] = mean of Donors 7-8, 20 μg/ml, 24 h
[10] = mean of Donors 9-12, 20 μg/ml, 24 h
[11] = mean of donors 110, 112, 119, 120, Table 14
[12] = mean of donors 28057-28060, Table 16
[13] = mean of donors 28065-28068, 20 ug/ml, 24 h, + PLGA = premixed with 100 μg/ml cPLGA
[14] = mean of donors 28185-28188, Table 15
[15] = mean of donors 28218-28221, 20 μg/ml, 24 h

Substance: 5′-TGACTGTGAACGTTCGAGATGA-3′ (SEQ ID NO: 2) [Compound P-6, reference compound]
- IFN-α (Table 13, donor 28158): 7 pg/mL
- IFN-γ (Table 13, donor 28158): 207 pg/mL
- IFN-α (Table 13, donor 28159): 32 pg/mL
- IFN-γ (Table 13, donor 28159): 231 pg/mL
- IFN-α mean (Table 13, mean of donors): 144 pg/mL
- IFN-γ mean (Table 13, mean of donors): 611 pg/mL
- IFN-α (Table 24, donor 28234): 58 pg/mL
- IFN-γ (Table 24, donor 28234): 15 pg/mL
- IFN-α (Table 24, donor 28235): 16 pg/mL
- IFN-γ (Table 24, donor 28235): 52 pg/mL
- IFN-α (Table 24, donor 28236): 16 pg/mL
- IFN-γ (Table 24, donor 28236): 51 pg/mL
- IFN-α (Table 24, donor 28237): 74 pg/mL
- IFN-γ (Table 24, donor 28237): 1167 pg/mL
- IFN-α mean [1]: 41 pg/mL
- IFN-γ mean [1]: 321 pg/mL
- IFN-a (Table 25, donor 28250): 16 pg/mL
- IFN-a (Table 25, donor 28251): 16 pg/mL
- IFN-g (Table 25, donor 28251): 18 pg/mL
- IFN-a (Table 25, donor 28252): 16 pg/mL
- IFN-g (Table 25, donor 28252): 34 pg/mL
- IFN-a (Table 25, donor 28253): 16 pg/mL
- IFN-g (Table 25, donor 28253): 37 pg/mL
- IFN-a mean [2]: 16 pg/mL
- IFN-g mean [2]: 52 pg/mL
- IFN-α (donor 110, Table 14): 50 pg/mL
- IFN-γ (donor 110, Table 14): 1508 pg/mL
- IFN-α (donor 112, Table 14): 172 pg/mL
- IFN-γ (donor 112, Table 14): 344 pg/mL
- IFN-α (donor 119, Table 14): 234 pg/mL
- IFN-γ (donor 119, Table 14): 144 pg/mL
- IFN-α (donor 120, Table 14): 72 pg/mL
- IFN-γ (donor 120, Table 14): 104 pg/mL
- IFN-α (donor 28057, Table 16): 621 pg/mL
- IFN-γ (donor 28057, Table 16): 83 pg/mL
- IFN-α (donor 28058, Table 16): 396 pg/mL
- IFN-γ (donor 28058, Table 16): 103 pg/mL
- IFN-α (donor 28059, Table 16): 145 pg/mL
- IFN-γ (donor 28059, Table 16): 1230 pg/mL
- IFN-α (donor 28060, Table 16): 123 pg/mL
- IFN-γ (donor 28060, Table 16): 85 pg/mL
- IFN-γ (pg/ml) 28065 (donor 28065 (high background), 20 ug/ml, 24 h, + PLGA = premixed with 100 μg/ml cPLGA, 1000 = outside assay limits): 439 pg/mL
- IFN-α (pg/ml) 28065 (donor 28065, 20 ug/ml, 24 h, + PLGA = premixed with 100 μg/ml cPLGA): 14 pg/mL
- IFN-α (pg/ml) 28066 [3]: 17 pg/mL
- IFN-γ (pg/ml) 28066 [3]: 12 pg/mL
- IFN-α (pg/ml) 28067 [4]: 45 pg/mL
- IFN-γ (pg/ml) 28067 [4]: 28 pg/mL
- IFN-α (pg/ml) 28068 [5]: 126 pg/mL
- IFN-γ (pg/ml) 28068 [5]: 906 pg/mL
- IFN-a (donor 28185, Table 15): 120 pg/mL
- IFN-g (donor 28185, Table 15): 205 pg/mL
- IFN-a (donor 28186, Table 15): 41 pg/mL
- IFN-g (donor 28186, Table 15): 17 pg/mL
- IFN-a (donor 28187, Table 15): 4 pg/mL
- IFN-g (donor 28187, Table 15): 148 pg/mL
- IFN-a (donor 28188, Table 15): 4 pg/mL
- IFN-g (donor 28188, Table 15): 8 pg/mL
- IFN-a (pg/ml) 28218 (donor 28218, 20 μg/ml, 24 h): 32 pg/mL
- IFN-g (pg/ml) 28218 (donor 28218, 20 μg/ml, 24 h): 13 pg/mL
- IFN-a (pg/ml) 28219 (donor 28219, 20 μg/ml, 24 h): 32 pg/mL
- IFN-g (pg/ml) 28219 (donor 28219, 20 μg/ml, 24 h): 7 pg/mL
- IFN-a (pg/ml) 28220 (donor 28220, 20 μg/ml, 24 h): 32 pg/mL
- IFN-g (pg/ml) 28220 (donor 28220, 20 μg/ml, 24 h): 25 pg/mL
- IFN-a (pg/ml) 28221 (donor 28221, 20 μg/ml, 24 h): 32 pg/mL
- IFN-g (pg/ml) 28221 (donor 28221, 20 μg/ml, 24 h): 141 pg/mL
- IFN-α (pg/ml) mean [6]: 220 pg/mL
- IFN-γ (pg/ml) mean [6]: 1425 pg/mL
- IFN-α (pg/ml) mean [7]: 67 pg/mL
- IFN-γ (pg/ml) mean [7]: 161 pg/mL
- IFN-α (pg/ml) mean [8]: 268 pg/mL
- IFN-γ (pg/ml) mean [8]: 621 pg/mL
- IFN-α (pg/ml) mean [9]: 32 pg/mL
- IFN-γ (pg/ml) mean [9]: 191 pg/mL
- IFN-α mean [10]: 16
- IFN-γ mean [10]: 45
- IFN-α (pg/ml) mean [11]: 132 pg/mL
- IFN-γ (pg/ml) mean [11]: 525 pg/mL
- IFN-α (pg/ml) mean [12]: 321 pg/mL
- IFN-γ (pg/ml) mean [12]: 375 pg/mL
- IFN-α (pg/ml) mean [13]: 50 pg/mL
- IFN-γ (pg/ml) mean [13]: 346 pg/mL
- IFN-a (pg/ml) mean [14]: 42 pg/mL
- IFN-g (pg/ml) mean [14]: 94 pg/mL
- IFN-a (pg/ml) mean [15]: 32 pg/mL
- IFN-g (pg/ml) mean [15]: 47 pg/mL
- IFN-a (pg/ml) ×2 (mean ×2, Table 15): 84 pg/mL
- IFN-g (pg/ml) ×4 (mean ×4, Table 15): 378 pg/mL
